Measurements from patent publication US20250154173A1 (Merck Sharp & Dohme LLC, priority 2023, published 2025).

target: T1, GST-RIPK1 (recombinant GST-RIPK1 kinase domain (residues 1-327)) (Homo sapiens, UniProt Q13546); assay: RIPK1-ADP-Glo Enzymatic Assay; format: biochemical; conditions: ten-point titration, top compound concentration of 100000 nM; 25 nM GST-RIPK1, 300 μM ATP, 3 μM dephosphorylated-MBP; 30 min pre-incubation, 150 min reaction
T1 construct: recombinant GST-RIPK1 kinase domain (residues 1-327) enzyme produced from baculovirus-transfected Sf21 cells; host or cells: baculovirus-transfected Sf21 insect cells
T1 sequence (Q13546 1-327): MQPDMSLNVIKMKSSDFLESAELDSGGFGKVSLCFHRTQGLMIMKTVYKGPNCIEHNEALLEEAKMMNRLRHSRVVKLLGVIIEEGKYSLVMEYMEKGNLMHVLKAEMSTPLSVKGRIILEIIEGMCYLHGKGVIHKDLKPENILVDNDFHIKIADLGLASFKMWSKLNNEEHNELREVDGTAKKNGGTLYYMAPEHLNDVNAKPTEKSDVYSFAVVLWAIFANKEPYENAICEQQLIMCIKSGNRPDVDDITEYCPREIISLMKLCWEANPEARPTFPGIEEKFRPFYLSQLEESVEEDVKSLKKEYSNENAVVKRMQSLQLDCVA
Outline: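 ADP-Glo luminescence quantifies ADP formed over 150 minutes by 25 nM Sf21-produced GST-RIPK1 (1-327) using 300 μM ATP and 3 μM dephosphorylated MBP, following 30-minute compound preincubation at 1% DMSO. Ten-point 1:3 series from 100000 nM gave EC50 via four-parameter sigmoidal regression.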

Compound	EC50
N#CCCc1ccc(COC2CC3(C2)OC2CC[C@@H](c4cnccn4)N2C3=O)cc1 (stereo partly drawn) [Example 18.47, 3-[4-({[(5′S)-3′-oxo-5′-(pyrazin-2-yl)tetrahydro-3′H-spiro[cyclobutane-1,2′-pyrrolo[2,1-b][1,3]oxazol]-3-yl]oxy}methyl)phenyl]propanenitrile]	60 nM
O=C1N2C(CC[C@H]2c2cnccn2)OC12CC(OCc1ccc3nc(C(F)(F)F)sc3c1)C2 (stereo partly drawn) [Example 18.48]	31 nM
N#CCc1ncc(COC2CC3(C2)OC2CC[C@@H](c4cnccn4)N2C3=O)cc1Cl (stereo partly drawn) [Example 18.49, [3-chloro-5-({[(5′S)-3′-oxo-5′-(pyrazin-2-yl)tetrahydro-3′H-spiro[cyclobutane-1,2′-pyrrolo[2,1-b][1,3]oxazol]-3-yl]oxy}methyl)pyridin-2-yl]acetonitrile]	59 nM
COCCOc1ccc(COC2CC3(C2)OC2CC[C@@H](c4cnccn4)N2C3=O)cc1 (stereo partly drawn) [Example 18.50, (5′S)-3-{[4-(2-methoxyethoxy)phenyl]methoxy}-5′-(pyrazin-2-yl)tetrahydro-3′H-spiro[cyclobutane-1,2′-pyrrolo[2,1-b][1,3]oxazol]-3′-one]	65 nM
N#Cc1cccc(F)c1COC1CC2(C1)OC1CC[C@@H](c3cnccn3)N1C2=O (stereo partly drawn) [Example 18.51, 3-fluoro-2-({[(5′S)-3′-oxo-5′-(pyrazin-2-yl)tetrahydro-3′H-spiro[cyclobutane-1,2′-pyrrolo[2,1-b][1,3]oxazol]-3-yl]oxy}methyl)benzonitrile]	210 nM
O=C1N2C(CC[C@H]2c2cnccn2)OC12CC(OCc1cnn(-c3ccncc3)c1)C2 (stereo partly drawn) [Example 18.52, (5′S)-5′-(pyrazin-2-yl)-3-{[1-(pyridin-4-yl)-1H-pyrazol-4-yl]methoxy}tetrahydro-3′H-spiro[cyclobutane-1,2′-pyrrolo[2,1-b][1,3]oxazol]-3′-one]	96 nM
O=C1N2C(CC[C@H]2c2cnccn2)OC12CC(OCc1ccccc1-n1cccn1)C2 (stereo partly drawn) [Example 18.53, (5′S)-5′-(pyrazin-2-yl)-3-{[2-(1H-pyrazol-1-yl)phenyl]methoxy}tetrahydro-3′H-spiro[cyclobutane-1,2′-pyrrolo[2,1-b][1,3]oxazol]-3′-one]	117 nM
O=C1N2C(CC[C@H]2c2cnccn2)OC12CC(OCc1ccc3nc(C(F)(F)F)cn3c1)C2 (stereo partly drawn) [Example 18.54, (5′S)-5′-(pyrazin-2-yl)-3-{[2-(trifluoromethyl)imidazo[1,2-a]pyridin-6-yl]methoxy}tetrahydro-3′H-spiro[cyclobutane-1,2′-pyrrolo[2,1-b][1,3]oxazol]-3′-one]	159 nM
N#Cc1ccoc1COC1CC2(C1)OC1CC[C@@H](c3cnccn3)N1C2=O (stereo partly drawn) [Example 18.55, 2-({[(5′S)-3′-oxo-5′-(pyrazin-2-yl)tetrahydro-3′H-spiro[cyclobutane-1,2′-pyrrolo[2,1-b][1,3]oxazol]-3-yl]oxy}methyl)furan-3-carbonitrile]	126 nM
CCc1nnc(-c2ccc(COC3CC4(C3)OC3CC[C@@H](c5cnccn5)N3C4=O)cc2)o1 (stereo partly drawn) [Example 18.56, (5′S)-3-{[4-(5-ethyl-1,3,4-oxadiazol-2-yl)phenyl]methoxy}-5′-(pyrazin-2-yl)tetrahydro-3′H-spiro[cyclobutane-1,2′-pyrrolo[2,1-b][1,3]oxazol]-3′-one]	11 nM
O=C1N2C(CC[C@H]2c2cnccn2)OC12CC(OCc1ccc(OC3CCOCC3)nc1)C2 (stereo partly drawn) [Example 18.57, (5′S)-3-({6-[(oxan-4-yl)oxy]pyridin-3-yl}methoxy)-5′-(pyrazin-2-yl)tetrahydro-3′H-spiro[cyclobutane-1,2′-pyrrolo[2,1-b][1,3]oxazol]-3′-one]	109 nM
O=C1N2[C@@H](CC[C@H]2c2cnccn2)OC12CC(OCc1ccc(-c3nnco3)cc1)C2 (stereo partly drawn) [Example 18.58, (5′S, 7a′R)-3-{[4-(1,3,4-oxadiazol-2-yl)phenyl]methoxy}-5′-(pyrazin-2-yl)tetrahydro-3′H-spiro[cyclobutane-1,2′-pyrrolo[2,1-b][1,3]oxazol]-3′-one]	40 nM
O=C1N2[C@@H](CC[C@H]2c2cnccn2)O[C@]12C[C@@H](OCc1ccc3oncc3c1)C2 [Example 18.59, (5′S)-3-[(1,2-benzoxazol-5-yl)methoxy]-5′-(pyrazin-2-yl)tetrahydro-3′H-spiro[cyclobutane-1,2′-pyrrolo[2,1-b][1,3]oxazol]-3′-one]	12 nM
O=C1N2[C@@H](CC[C@H]2c2cnccn2)OC12CC(OCc1ccnc3ccnn13)C2 (stereo partly drawn) [Example 18.60, (5′S)-5′-(pyrazin-2-yl)-3-[(pyrazolo[1,5-a]pyrimidin-7-yl)methoxy]tetrahydro-3′H-spiro[cyclobutane-1,2′-pyrrolo[2,1-b][1,3]oxazol]-3′-one]	91 nM
O=C1N2C(CC[C@H]2c2cnccn2)OC12CC(OCc1ccc3scnc3c1)C2 (stereo partly drawn) [Example 18.61, (5′S)-3-[(1,3-benzothiazol-5-yl)methoxy]-5′-(pyrazin-2-yl)tetrahydro-3′H-spiro[cyclobutane-1,2′-pyrrolo[2,1-b][1,3]oxazol]-3′-one]	37 nM
N#CCc1cccc(COC2CC3(C2)OC2CC[C@@H](c4cnccn4)N2C3=O)c1 (stereo partly drawn) [Example 18.62, [3-({[(5′S)-3′-oxo-5′-(pyrazin-2 yl)tetrahydro-3′H-spiro[cyclobutane-1,2′-pyrrolo[2,1-b][1,3]oxazol]-3-yl]oxy}methyl)phenyl]acetonitrile]	47 nM
O=C1N2C(CC[C@H]2c2cnccn2)OC12CC(OCc1ccc(C(F)F)cn1)C2 (stereo partly drawn) [Example 18.63, (5′S)-3-{[5-(difluoromethyl)pyridin-2-yl]methoxy}-5′-(pyrazin-2-yl)tetrahydro-3′H-spiro[cyclobutane-1,2′-pyrrolo[2,1-b][1,3]oxazol]-3′-one]	354 nM
O=C1N2C(CC[C@H]2c2cnccn2)OC12CC(OCc1nnc(Cc3ccccc3)s1)C2 (stereo partly drawn) [Example 18.64, (5′S)-3-[(5-benzyl-1,3,4-thiadiazol-2-yl)methoxy]-5′-(pyrazin-2-yl)tetrahydro-3′H-spiro[cyclobutane-1,2′-pyrrolo[2,1-b][1,3]oxazol]-3′-one]	122 nM

Other lines, results leading:

EC50	Compound
32 nM	N#Cc1ccc(COC2CC3(C2)OC2CC[C@@H](c4cnccn4)N2C3=O)c2cccnc12 (stereo partly drawn) [Example 18.65, 5-({[(5′S)-3′-oxo-5′-(pyrazin-2-yl)tetrahydro-3′H-spiro[cyclobutane-1,2′-pyrrolo[2,1-b][1,3]oxazol]-3-yl]oxy}methyl)quinoline-8-carbonitrile]
141 nM	CCC(C)Oc1cccc(COC2CC3(C2)O[C@@H]2CC[C@@H](c4cnccn4)N2C3=O)n1 (stereo partly drawn) [Example 18.66, (5′S,7a′R)-3-({6-[(butan-2-yl)oxy]pyridin-2-yl}methoxy)-5′-(pyrazin-2-yl)tetrahydro-3′H-spiro[cyclobutane-1,2′-pyrrolo[2,1-b][1,3]oxazol]-3′-one]
88 nM	CS(=O)(=O)c1ccc(COC2CC3(C2)OC2CC[C@@H](c4cnccn4)N2C3=O)cc1 (stereo partly drawn) [Example 18.67, (5′S)-3-{[4-(methylsulfonyl)phenyl]methoxy}-5′-(pyrazin-2-yl)tetrahydro-3′H-spiro[cyclobutane-1,2′-pyrrolo[2,1-b][1,3]oxazol]-3′-one]
43 nM	O=C1N2C(CC[C@H]2c2cnccn2)OC12CC(OCc1csc3ncccc13)C2 (stereo partly drawn) [Example 18.68, (5′S)-5′-(pyrazin-2-yl)-3-[(thieno[2,3-b]pyridin-3-yl)methoxy]tetrahydro-3′H-spiro[cyclobutane-1,2′-pyrrolo[2,1-b][1,3]oxazol]-3′-one]
109 nM	O=C1N2C(CC[C@H]2c2cnccn2)OC12CC(OCc1ccc3nccn3c1)C2 (stereo partly drawn) [Example 18.69, (5′S)-3-[(imidazo[1,2-a]pyridin-6-yl)methoxy]-5′-(pyrazin-2-yl)tetrahydro-3′H-spiro[cyclobutane-1,2′-pyrrolo[2,1-b][1,3]oxazol]-3′-one]
150 nM	COc1ccc(COC2CC3(C2)OC2CC[C@@H](c4cnccn4)N2C3=O)cn1 (stereo partly drawn) [Example 18.70, (5′S)-3-[(6-methoxypyridin-3-yl)methoxy]-5′-(pyrazin-2-yl)tetrahydro-3′H-spiro[cyclobutane-1,2′-pyrrolo[2,1-b][1,3]oxazol]-3′-one]
796 nM	O=C1N2C(CC[C@H]2c2cnccn2)OC12CC(OCc1csc(C3CC3)n1)C2 (stereo partly drawn) [Example 18.71, (5′S)-3-[(2-cyclopropyl-1,3-thiazol-4-yl)methoxy]-5′-(pyrazin-2-yl)tetrahydro-3′H-spiro[cyclobutane-1,2′-pyrrolo[2,1-b][1,3]oxazol]-3′-one]
83 nM	O=C1N2C(CC[C@H]2c2cnccn2)OC12CC(OCc1cccc3cncc(F)c13)C2 (stereo partly drawn) [Example 18.72, (5′S)-3-[(4-fluoroisoquinolin-5-yl)methoxy]-5′-(pyrazin-2-yl)tetrahydro-3′H-spiro[cyclobutane-1,2′-pyrrolo[2,1-b][1,3]oxazol]-3′-one]
111 nM	O=C1N2C(CC[C@H]2c2cnccn2)OC12CC(OCc1ccc3nc(C4CC4)cn3c1)C2 (stereo partly drawn) [Example 18.73, (5′S)-3-[(2-cyclopropylimidazo[1,2-a]pyridin-6-yl)methoxy]-5′-(pyrazin-2-yl)tetrahydro-3′H-spiro[cyclobutane-1,2′-pyrrolo[2,1-b][1,3]oxazol]-3′-one]
